Patent US20030139371A1, “Drug for combating sexual dysfunctions” (priority 2000, published 2003)

How the values were obtained:
[1] = system: isolated rabbit corpus cavernosum; assay: Isolated rabbit corpus cavernosum in organ chambers, sex not specified or both sexes; settings: for potentiation of the relaxant effect of purine by the NSAID: NSAID in place of aspirin, combined with purine
From the text: The in vitro model we used was that of the isolated rabbit corpus cavernosum in organ chambers. […] In fact, the best correlations with the results found in humans have been found in the rabbit; see, e.g., Bush P. A., Aronson W. J., Buga G. M., Rajfer J., Ignarro L. J., J. Urol. 147(6); 1650-1655 (1992); Knispel H. H., Goessel C., Bechman R., Urol. Res. 20(4); 253-257 (1992); Holmquist F., Hedlund H., Andersson K. E., J. Physiol. (London) 449; 295-311 (1992); and Cellek S., Moncada S., Proc. Natl. Acad. Sci. USA 94(15); 8226-8231 (1997).
The relaxant action of purines was studied in this model either with purines alone or with an inhibitor of NO synthesis (N-omega-nitro-L-arginine, or L-NNA) so as to investigate whether the regulation by purines of the production of NO is a component of the relaxant effect of purines.
In a similar manner, we investigated whether the presence of an inhibitor of the synthesis of prostaglandins (cyclooxygenase inhibitor) modified the effects of purine. If the action of purine could be explained in part by an indirect effect via prostaglandins, we would expect to see a decrease in the effect of purine in the presence of the cyclooxygenase inhibitor.
This study was performed in vitro on corpus cavernosum smooth muscles from male and female rabbits. The technique is that of organ chambers.
The study was performed on male and female rabbits.

[2] = system: corpus cavernosum smooth muscle from male rabbits; assay: Relaxation of phenylephrine-precontracted corpus cavernosum smooth muscle in organ chambers, male rabbits; design: species or system rabbit; settings: for relaxation of the corpus cavernosum smooth muscle in the presence of aspirin / relaxation of the corpus cavernosum smooth muscle: male rabbits, after phenylephrine precontraction; for relaxation of the corpus cavernosum smooth muscle in the presence of aspirin: purine 10^-3M combined with aspirin 10^-3M; for relaxation of the corpus cavernosum smooth muscle: purine alone at 10^-3M
[3] = system: corpus cavernosum smooth muscle from female rabbits; assay: Relaxation of phenylephrine-precontracted corpus cavernosum smooth muscle in organ chambers, female rabbits; design: species or system rabbit; settings: after phenylephrine precontraction; for relaxation of the corpus cavernosum in the presence of aspirin: purine 10^-3M in the presence of aspirin; for relaxation of the corpus cavernosum: purine alone at 10^-3M

O=C(O)c1ccccc1O [salicylic acid]
potentiation of the relaxant effect of purine by the NSAID [1]: confirmed

NC(=NCCC[C@H](N)C(=O)O)N[N+](=O)[O-] [L-NNA, N-omega-nitro-L-arginine]
decrease of the relaxant effect of purine in the presence of an inhibitor of NO synthesis ([1]; compared with purine alone): about 15%

Nc1ncnc2c1ncn2[C@@H]1O[C@H](COP(=O)(O)O)[C@@H](O)[C@H]1O [AMP]
relaxation of the corpus cavernosum smooth muscle in the presence of aspirin [2]: 92% | relaxation of the corpus cavernosum smooth muscle [2]: 70% | relaxation of the corpus cavernosum in the presence of aspirin [3]: 36% | relaxation of the corpus cavernosum [3]: 20%

COc1ccc2c(c1)c(CC(=O)O)c(C)n2C(=O)c1ccc(Cl)cc1 [indomethacin]
potentiation of the relaxant effect of purine by the NSAID [1]: confirmed

Cc1cccc(Nc2ccccc2C(=O)O)c1C [mefenamic acid]
potentiation of the relaxant effect of purine by the NSAID [1]: confirmed

CC(=O)Oc1ccccc1C(=O)O [aspirin, acetylsalicylic acid, reference compound]
vasoactivity of the NSAID by itself on this model ([2]; aspirin alone): not vasoactive

Nc1ncnc2c1ncn2[C@@H]1O[C@H](COP(=O)(O)OP(=O)(O)OP(=O)(O)O)[C@@H](O)[C@H]1O [ATP, adenosine triphosphate]
relaxation of the corpus cavernosum smooth muscle in the presence of aspirin [2]: 57% | relaxation of the corpus cavernosum smooth muscle [2]: 35% | relaxation of the corpus cavernosum in the presence of aspirin [3]: 50% | relaxation of the corpus cavernosum [3]: 31%
